Measured values: patent publication US20070276030A1, “Pyranobenzothiophene derivatives to treat infection with hepatitis c virus” (priority 2003, published 2007)
Like-named read-outs stand apart in the source and are kept apart here.

Experiments:
[1] = molecular target: T1, HCV RdRp NS5B d21BK (BK strain, genotype 1b) (Hepatitis C virus genotype 1b, UniProt P26663); experiment: Hepatitis C polymerase (NS5B) inhibition, radioactive filter assay; assay type: biochemical; conditions: for inhibition at 20 µM: read-out: HCV pol % inh at 20 μM
T1 construct: NS5B from the BK strain (genotype 1b) is expressed in E. coli as a protein in which the 21 C-terminal amino acids are replaced; made in house; host or cells: E. coli
T1 sequence (P26663 2420-2989): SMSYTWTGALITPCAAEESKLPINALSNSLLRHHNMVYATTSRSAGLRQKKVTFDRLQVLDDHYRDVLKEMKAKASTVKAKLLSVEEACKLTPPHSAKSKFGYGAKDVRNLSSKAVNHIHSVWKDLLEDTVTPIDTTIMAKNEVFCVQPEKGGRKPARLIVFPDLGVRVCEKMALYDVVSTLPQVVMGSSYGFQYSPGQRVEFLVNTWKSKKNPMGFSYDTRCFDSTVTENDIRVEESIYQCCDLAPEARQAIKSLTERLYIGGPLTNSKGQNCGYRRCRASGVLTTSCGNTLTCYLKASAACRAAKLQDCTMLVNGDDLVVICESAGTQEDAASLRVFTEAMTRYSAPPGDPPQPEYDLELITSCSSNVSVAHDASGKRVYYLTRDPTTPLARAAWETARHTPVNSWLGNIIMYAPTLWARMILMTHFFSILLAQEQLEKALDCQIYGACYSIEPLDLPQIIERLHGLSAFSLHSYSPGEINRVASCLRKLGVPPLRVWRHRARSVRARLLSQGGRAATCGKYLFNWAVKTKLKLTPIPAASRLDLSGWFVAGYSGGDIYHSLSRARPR
Description: The ability of the compounds of the present invention to inhibit Hepatitis C Polymerase was established by the following experimental procedure:
NS5B from the BK strain (genotype 1b) is expressed in E. coli as a protein in which the 21 C-terminal amino acids are replaced with a short linker and a hexahistidine tag ([…]). The purified protein is mixed with radioactive nucleotides and allowed to replicate a heteropolymeric RNA substrate, primed by an endogenous short hairpin, resulting in an approximately 760 nt product. The radioactive product is captured on a filter and quantitated after removal of the unincorporated nucleotides.
Dilute nucleotides 1:1000 to 10 μM (GTP and CTP) or 1:100 to 100 μM (ATP and UTP) into RNase free water.
(1) Compounds 10 μl at 10 μg/ml in 15% Dimethylsulfoxide (DMSO)
Add 20 μl enzyme mix into each well of the assay plate. Incubate compound and enzyme at room temperature for 15 minutes.
(3) Template Mix—Prepare Ahead
Spin down a tube of RNA (5 μg/tube stored in 75% ethanol and 0.3 M sodium acetate) in a microcentrifuge for 20 minutes at 4° C. One tube is enough for 1-1.5 plates. Remove as much ethanol from the tube as possible by inverting the tube. Be gentle, pellet RNA may not adhere to the tube. Vacuum dry the RNA. Resuspend the RNA by adding 1 ml of DEPC water, close the cap of the tube tightly. To dissolve RNA, incubate RNA solution on ice for ˜60 minutes and gently vortex. Spin briefly to ensure all RNA solution is down to the bottom of the tube before opening cap. Gently transfer RNA solution into a 5 ml or larger tube. Add another 3 ml of DEPC water (total 4 ml of volume).
Add the following volumes of reagents
Add 20 μl template mix per reaction (i.e. 20 ng of pOF per reaction or ˜3 nM). (4) Incubate reaction at room temperature (22-25° C.) for 2 hours. (5) Stop reaction by adding 50 μl of 170 mM EDTA.
Final concentration of EDTA is 85 mM.
(6) Prewet filters of Millipore multiscreen assay plate by adding […] of 0.5 M sodium phosphate buffer, pH 7.0 into each well. Let stand at room temperature for 2-3 minutes.
(7) Place the multiscreen filter plate onto a Millipore Manifold and turn on vacuum to allow buffer to flow through. Turn off vacuum. Transfer 80 μl of the reaction product into each well of the filter plate. Let stand for 2-3 minutes. Turn on vacuum to filter reaction product.
(8) Turn off vacuum. Add 200 μl of 0.5 M sodium phosphate buffer, pH 7.0 into each well to wash filter. Turn on vacuum.
Repeat step (8) three more times.
(9) Remove polypropylene bottom. Spot dry filter at the bottom with paper towel. Air dry filter plate on a bench for 1 hour. Add 40 μl Super Mix scintillant. Seal top of the plate with a tape. Place plate into a Packard carrier or micro-beta carrier.
(10) Count plate using a Packard Topcount or micro-beta counter. Count (for example using Program 10) for ^33P in Top count or ^33P program in micro-beta.
Percent inhibition is calculated after background subtraction as a percent reduction of activity relative to the positive control (average value of the plate excluding the negative controls). For the primary screen hits were chosen as showing ≧75% inhibition.
See. Ferrari et al. 1999. J. Virology 73:1649-1654: “Characterization of soluble Hepatitis C virus RNA-dependent RNA polymerase expressed in E. coli and Takamizawa et all 1991” and J. Virology 65:1105-1113: “Structure and characterization of the Hepatitis C virus genome isolated from human carriers,” both references are hereby incorporated by reference in their entireties, specifically methods of testing inhibition of Hepatitis C Polymerase with test compounds.

[2] = U.S. Pat. No. 4,021,451; cited from earlier work

Structure (SMILES)	IC50 [1]	inhibition at 20 µM [1]	biological activity such as antiinflammatory or antibacterial or antifungal activity [2]	IC50 ([1]; NS5B BK strain, read-out: HCV pol BK IC50)
CCC1(CC(=O)O)OCCc2c1sc1ccccc21 (stereo not drawn) [Example 14, (1-ethyl-3,4-dihydro-1H-[1]benzothieno[2,3-c]pyran-1-yl)acetic acid]	> 20000 nM	< 10%		
CC(C)C1(CC(=O)O)OCCc2c1sc1ccccc21 (stereo not drawn) [Example 18, (1-isopropyl-3,4-dihydro-1H-[1]benzothieno[2,3-c]pyran-1-yl)acetic acid]	> 20000 nM	< 10%		
CCCC1(CC(=O)O)OCCc2c1sc1c(C)ccc(Br)c21 (stereo not drawn) [Example 1, (5-bromo-8-methyl-1-propyl-3,4-dihydro-1H-[1]benzothieno[2,3-c]pyran-1-yl)acetic acid]	180 nM			
CC1(c2ccc(CC(=O)O)cc2)OCCc2c1sc1ccccc21 (stereo not drawn) [[p-(3,4-dihydro-1-methyl-1H-[1]benzothieno[2,3-c]pyran-1-yl)phenyl]-acetic acid]			lacks any biological activity	
CC1(CC(=O)O)OCCc2c1sc1ccccc21 (stereo not drawn) [Example 13, (1-methyl-3,4-dihydro-1H-[1]benzothieno[2,3-c]pyran-1-yl)acetic acid]	> 20000 nM	< 10%		
O=C(O)CC1(c2ccccc2)OCCc2c1sc1ccccc21 (stereo not drawn) [Example 17, (1-phenyl-3,4-dihydro-1H-[1]benzothieno[2,3-c]pyran-1-yl)acetic acid]	> 20000 nM	27%		
CCCC1(CC(=O)O)OCCc2c1sc1ccccc21 (stereo not drawn) [Example 15, (1-propyl-3,4-dihydro-1H-[1]benzothieno[2,3-c]pyran-1-yl)acetic acid]	> 20000 nM	< 10%		
CCC[C@]1(CC(=O)O)OCCc2c1sc1c(C)ccc(C#N)c21 [Example 3, [(1R)-5-cyano-8-methyl-1-propyl-3,4-dihydro-1H-[1]benzothieno[2,3-c]pyran-1-yl]acetic acid]	620 nM			
CC1(CC(=O)O)OCCc2c1sc1c(Cl)ccc(Cl)c21 (stereo not drawn) [Example 6, (5,8-chloro-1-methyl-3,4-dihydro-1H-[1]benzothieno[2,3-c]pyran-1-yl)acetic acid]				280 nM
CCC[C@@]1(CC(=O)O)OCCc2c1sc1c(C)cc(F)c(C#N)c21 [Example 12, [(1S)-5-cyano-6-fluoro-8-methyl-1-propyl-3,4-dihydro-1H-[1]benzothieno[2,3-c]pyran-1-yl]acetic acid]	5400 nM			
CCCC1(CC(=O)O)OCCc2c1sc1c(C)cc(F)c(C#N)c21 (stereo not drawn) [Example 10, (5-cyano-6-fluoro-8-methyl-1-propyl-3,4-dihydro-1H-[1]benzothieno[2,3-c]pyran-1-yl)acetic acid]	130 nM			
CCOC(=O)CC1(CC(=O)O)OCCc2c1sc1ccccc21 (stereo not drawn) [Example 19, [1-(2-ethoxy-2-oxoethyl)-3,4-dihydro-1H-[1]benzothieno[2,3-c]pyran-1-yl]acetic acid]	> 20000 nM	< 10%		
CCC[C@@]1(CC(=O)O)OCCc2c1sc1c(C)ccc(C#N)c21 [Example 4, [(1S)-5-cyano-8-methyl-1-propyl-3,4-dihydro-1H-[1]benzothieno[2,3-c]pyran-1-yl]acetic acid]	1900 nM			
CCCC1(CC(=O)O)OCCc2c1sc1c(C)cc(F)cc21 (stereo not drawn) [Example 9, (6-fluoro-8-methyl-1-propyl-3,4-dihydro-1H-[1]benzothieno[2,3-c]pyran-1-yl)acetic acid]	2900 nM			
CCCCC1(CC(=O)O)OCCc2c1sc1ccccc21 (stereo not drawn) [Example 16, (1-butyl-3,4-dihydro-1H-[1]benzothieno[2,3-c]pyran-1-yl)acetic acid]	> 20000 nM	< 10%		
CCCCC1(CC(=O)O)OCCc2c1sc1c(Cl)ccc(Cl)c21 (stereo not drawn) [Example 7, (1-butyl-5,8-dichloro-3,4-dihydro-1H-[1]benzothieno[2,3-c]pyran-1-yl)acetic acid]	320 nM			
CCCC1(CC(=O)O)OCCc2c1sc1c(C)ccc(C#N)c21 (stereo not drawn) [Example 2, (5-cyano-8-methyl-1-propyl-3,4-dihydro-1H-[1]benzothieno[2,3-c]pyran-1-yl)acetic acid]	17700 nM			
CCCC1(CC(=O)O)OCCc2c1sc1c(Cl)ccc(Cl)c21 (stereo not drawn) [Example 5, (5,8-dichloro-1-propyl-3,4-dihydro-1H-[1]benzothieno[2,3-c]pyran-1-yl)acetic acid]	> 20000 nM	< 10%		
CCC1(CC(=O)O)OCCc2c1sc1c(Cl)ccc(Cl)c21 (stereo not drawn) [Example 8, (5,8-dichloro-1-ethyl-3,4-dihydro-1H-[1]benzothieno[2,3-c]pyran-1-yl)acetic acid]	170 nM			
